The values below come from ChEMBL document CHEMBL5338706, “Discovery of a potent and selective proteolysis targeting chimera (PROTAC) degrader of NSD3 histone methyltransferase” (Eur J Med Chem, 2022).

In experiment [1] the test system is NCI-H1703. Kind of experiment: Downregulation of CDC25A in human NCI-H1703 cells at […] measured after 72 hrs by RNA sequencing assay. Format: functional, cell-based. The settings on record: dose 7.5 µM.
The subject of experiment [2] is NCI-H1703. Kind of experiment: Induction of apoptosis in human NCI-H1703 cells assessed as necrotic cells at 5 uM measured after 72 hrs by PI/Annexin-V staining based flow cytometry analysis (reference value: 2.80% ). Format: functional. (Flow cytometry measures light scatter and fluorescence of single cells or particles in a stream.)
For experiment [3], the target named is T1, Histone-lysine N-methyltransferase NSD3 (Homo sapiens) (UniProt Q9BZ95).
T1 sequence (whole entry): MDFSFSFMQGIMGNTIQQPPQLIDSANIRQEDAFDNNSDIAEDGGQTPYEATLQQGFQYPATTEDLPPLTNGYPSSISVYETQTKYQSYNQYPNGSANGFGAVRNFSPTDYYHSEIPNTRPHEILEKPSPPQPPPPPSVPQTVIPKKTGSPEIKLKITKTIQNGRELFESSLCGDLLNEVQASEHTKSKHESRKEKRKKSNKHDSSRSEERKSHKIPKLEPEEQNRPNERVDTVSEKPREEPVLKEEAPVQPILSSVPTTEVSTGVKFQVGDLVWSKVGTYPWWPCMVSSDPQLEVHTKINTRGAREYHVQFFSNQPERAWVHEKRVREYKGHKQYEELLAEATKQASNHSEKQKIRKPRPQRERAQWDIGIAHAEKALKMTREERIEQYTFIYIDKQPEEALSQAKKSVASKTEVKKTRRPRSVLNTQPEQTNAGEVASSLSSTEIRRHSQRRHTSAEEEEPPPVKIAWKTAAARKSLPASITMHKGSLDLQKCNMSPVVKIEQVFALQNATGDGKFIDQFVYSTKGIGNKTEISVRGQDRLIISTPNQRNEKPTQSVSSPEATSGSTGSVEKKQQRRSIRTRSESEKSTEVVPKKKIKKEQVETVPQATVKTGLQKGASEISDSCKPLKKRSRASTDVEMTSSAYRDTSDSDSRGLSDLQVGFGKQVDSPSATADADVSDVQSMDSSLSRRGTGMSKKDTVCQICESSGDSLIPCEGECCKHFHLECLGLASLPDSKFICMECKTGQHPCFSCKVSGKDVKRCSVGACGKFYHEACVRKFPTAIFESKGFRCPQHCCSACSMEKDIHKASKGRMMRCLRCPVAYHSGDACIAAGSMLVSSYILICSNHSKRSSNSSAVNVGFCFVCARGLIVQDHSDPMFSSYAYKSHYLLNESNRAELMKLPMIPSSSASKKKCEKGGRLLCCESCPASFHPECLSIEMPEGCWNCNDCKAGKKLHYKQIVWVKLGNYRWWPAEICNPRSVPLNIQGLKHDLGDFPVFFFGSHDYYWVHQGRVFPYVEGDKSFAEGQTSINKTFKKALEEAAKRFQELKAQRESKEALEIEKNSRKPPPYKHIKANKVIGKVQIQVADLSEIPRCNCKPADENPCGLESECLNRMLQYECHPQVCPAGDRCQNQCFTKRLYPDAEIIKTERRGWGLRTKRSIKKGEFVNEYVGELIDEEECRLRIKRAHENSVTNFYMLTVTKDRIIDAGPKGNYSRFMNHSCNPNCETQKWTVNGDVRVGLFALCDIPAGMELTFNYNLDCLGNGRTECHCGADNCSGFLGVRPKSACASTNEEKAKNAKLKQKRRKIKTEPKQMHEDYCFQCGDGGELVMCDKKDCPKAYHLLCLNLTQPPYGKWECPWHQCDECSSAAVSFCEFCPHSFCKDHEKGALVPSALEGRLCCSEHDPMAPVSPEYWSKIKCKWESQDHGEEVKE
Kind of experiment: Induction of NSD3 degradation in human NCI-H1703 cells at […] incubated for 48 hrs in presence of MG132 by Western blot analysis. The format is cell-based. Particulars: dose 7.5 µM. (In general: Immunoblotting shows a protein as a band on a membrane.)

Experiment [4] is described as follows: Downregulation of CDC25A level in human NCI-H520 cells at […] by measuring fold change by Western blot analysis relative to control. Format: functional. The settings on record: dose 7.5 µM.
In experiment [5] the test system is NCI-H1703. Kind of experiment: Induction of apoptosis in human NCI-H1703 cells assessed as viable cells at […] measured after 72 hrs by PI/Annexin-V staining based flow cytometry analysis (reference value: 92.7% ). Format: functional. The settings on record: dose 7.5 µM, read-out: Activity.
Experiment [6] is described as follows: Downregulation of NSD3 level in human NCI-H520 cells at 5 uM by measuring fold change by Western blot analysis relative to control. The format is functional.
Experiment [7] in a line: Downregulation of c-Myc level in human NCI-H520 cells at […] by measuring fold change by Western blot analysis relative to control. The format is functional. Particulars: dose 7.5 µM.
Experiment [8] concerns the target Histone-lysine N-methyltransferase, H3 lysine-36 specific (Homo sapiens) (UniProt Q96L73). Kind of experiment: Induction of NSD1 degradation in human A549 cells at 5 to 10 uM incubated for 72 hrs by Western blot analysis. Format: cell-based. The settings on record: dose 5-10 µM.
For experiment [9], the system named is NCI-H1703. Kind of experiment: Induction of apoptosis in human NCI-H1703 cells assessed as decrease in NSD3 protein expression at 10 uM by measuring fold change by Western blot analysis relative to control. Format: functional.
Experiment [10] can be described thus: Downregulation of c-Myc level in human NCI-H520 cells at 3 uM by measuring fold change by Western blot analysis relative to control. Format: functional.
Experiment [11] can be described thus: Downregulation of Cyclin D1 level in human NCI-H520 cells at […] by measuring fold change by Western blot analysis relative to control. Particulars: dose 7.5 µM. Format: functional.
The subject of experiment [12] is NCI-H1703. Kind of experiment: Induction of apoptosis in human NCI-H1703 cells assessed as late apoptotic cells at 5 uM measured after 72 hrs by PI/Annexin-V staining based flow cytometry analysis (reference value: 3.00% ). The format is functional.
Experiment [13] concerns the target T1, Histone-lysine N-methyltransferase NSD3 (Homo sapiens). Kind of experiment: Induction of NSD3 degradation in human NCI-H1703 cells at 3 uM incubated for 48 hrs in presence of MG132 by Western blot analysis. Format: cell-based.
For experiment [14], the system named is NCI-H520. Kind of experiment: Induction of apoptosis in human NCI-H520 cells assessed as decrease in NSD3 protein expression at […] by measuring fold change by Western blot analysis relative to control. The format is functional. Particulars: dose 7.5 µM.
Experiment [15] in a line: Downregulation of Cyclin D1 level in human NCI-H1703 cells at 5 uM by measuring fold change by Western blot analysis relative to control. The format is functional.
Experiment [16] deals with NCI-H1703. Kind of experiment: Induction of cell cycle arrest in human NCI-H1703 cells assessed as increase accumulation of cells at G2/M phase at […] incubated for 48 hrs by propidium iodide staining based analysis. Particulars: dose 7.5 µM. Format: functional.
For experiment [17], the system named is NCI-H520. Kind of experiment: Induction of apoptosis in human NCI-H520 cells assessed as decrease in Bcl-XL protein expression at 10 uM by measuring fold change by Western blot analysis relative to control. The format is functional.
The subject of experiment [18] is NCI-H1703. Kind of experiment: Induction of apoptosis in human NCI-H1703 cells assessed as decrease in MCL-1 protein expression at 5 uM by measuring fold change by Western blot analysis relative to control. Format: functional.
For experiment [19], the target named is T1, Histone-lysine N-methyltransferase NSD3 (Homo sapiens). Kind of experiment: (§1) Induction of NSD3 degradation in human NCI-H1703 cells incubated for 72 hrs by Western blot analysis. Format: cell-based. Particulars: dose 0.001-5 µM.
Experiment [20] concerns the target T2, Histone-lysine N-methyltransferase NSD3 (Homo sapiens, UniProt Q9BZ95).
T2 sequence (Q9BZ95 whole entry): T1 sequence (whole entry)
Described as §1. The format is cell-based.

Experiment [21] in a line: Downregulation of CDC25A level in human NCI-H1703 cells at 3 uM by measuring fold change by Western blot analysis relative to control. The format is functional.

Activity calls are given as the source filed them. The rule behind the calls is not given here.

Sequence of Histone-lysine N-methyltransferase, H3 lysine-36 specific (Homo sapiens) (Q96L73 whole entry): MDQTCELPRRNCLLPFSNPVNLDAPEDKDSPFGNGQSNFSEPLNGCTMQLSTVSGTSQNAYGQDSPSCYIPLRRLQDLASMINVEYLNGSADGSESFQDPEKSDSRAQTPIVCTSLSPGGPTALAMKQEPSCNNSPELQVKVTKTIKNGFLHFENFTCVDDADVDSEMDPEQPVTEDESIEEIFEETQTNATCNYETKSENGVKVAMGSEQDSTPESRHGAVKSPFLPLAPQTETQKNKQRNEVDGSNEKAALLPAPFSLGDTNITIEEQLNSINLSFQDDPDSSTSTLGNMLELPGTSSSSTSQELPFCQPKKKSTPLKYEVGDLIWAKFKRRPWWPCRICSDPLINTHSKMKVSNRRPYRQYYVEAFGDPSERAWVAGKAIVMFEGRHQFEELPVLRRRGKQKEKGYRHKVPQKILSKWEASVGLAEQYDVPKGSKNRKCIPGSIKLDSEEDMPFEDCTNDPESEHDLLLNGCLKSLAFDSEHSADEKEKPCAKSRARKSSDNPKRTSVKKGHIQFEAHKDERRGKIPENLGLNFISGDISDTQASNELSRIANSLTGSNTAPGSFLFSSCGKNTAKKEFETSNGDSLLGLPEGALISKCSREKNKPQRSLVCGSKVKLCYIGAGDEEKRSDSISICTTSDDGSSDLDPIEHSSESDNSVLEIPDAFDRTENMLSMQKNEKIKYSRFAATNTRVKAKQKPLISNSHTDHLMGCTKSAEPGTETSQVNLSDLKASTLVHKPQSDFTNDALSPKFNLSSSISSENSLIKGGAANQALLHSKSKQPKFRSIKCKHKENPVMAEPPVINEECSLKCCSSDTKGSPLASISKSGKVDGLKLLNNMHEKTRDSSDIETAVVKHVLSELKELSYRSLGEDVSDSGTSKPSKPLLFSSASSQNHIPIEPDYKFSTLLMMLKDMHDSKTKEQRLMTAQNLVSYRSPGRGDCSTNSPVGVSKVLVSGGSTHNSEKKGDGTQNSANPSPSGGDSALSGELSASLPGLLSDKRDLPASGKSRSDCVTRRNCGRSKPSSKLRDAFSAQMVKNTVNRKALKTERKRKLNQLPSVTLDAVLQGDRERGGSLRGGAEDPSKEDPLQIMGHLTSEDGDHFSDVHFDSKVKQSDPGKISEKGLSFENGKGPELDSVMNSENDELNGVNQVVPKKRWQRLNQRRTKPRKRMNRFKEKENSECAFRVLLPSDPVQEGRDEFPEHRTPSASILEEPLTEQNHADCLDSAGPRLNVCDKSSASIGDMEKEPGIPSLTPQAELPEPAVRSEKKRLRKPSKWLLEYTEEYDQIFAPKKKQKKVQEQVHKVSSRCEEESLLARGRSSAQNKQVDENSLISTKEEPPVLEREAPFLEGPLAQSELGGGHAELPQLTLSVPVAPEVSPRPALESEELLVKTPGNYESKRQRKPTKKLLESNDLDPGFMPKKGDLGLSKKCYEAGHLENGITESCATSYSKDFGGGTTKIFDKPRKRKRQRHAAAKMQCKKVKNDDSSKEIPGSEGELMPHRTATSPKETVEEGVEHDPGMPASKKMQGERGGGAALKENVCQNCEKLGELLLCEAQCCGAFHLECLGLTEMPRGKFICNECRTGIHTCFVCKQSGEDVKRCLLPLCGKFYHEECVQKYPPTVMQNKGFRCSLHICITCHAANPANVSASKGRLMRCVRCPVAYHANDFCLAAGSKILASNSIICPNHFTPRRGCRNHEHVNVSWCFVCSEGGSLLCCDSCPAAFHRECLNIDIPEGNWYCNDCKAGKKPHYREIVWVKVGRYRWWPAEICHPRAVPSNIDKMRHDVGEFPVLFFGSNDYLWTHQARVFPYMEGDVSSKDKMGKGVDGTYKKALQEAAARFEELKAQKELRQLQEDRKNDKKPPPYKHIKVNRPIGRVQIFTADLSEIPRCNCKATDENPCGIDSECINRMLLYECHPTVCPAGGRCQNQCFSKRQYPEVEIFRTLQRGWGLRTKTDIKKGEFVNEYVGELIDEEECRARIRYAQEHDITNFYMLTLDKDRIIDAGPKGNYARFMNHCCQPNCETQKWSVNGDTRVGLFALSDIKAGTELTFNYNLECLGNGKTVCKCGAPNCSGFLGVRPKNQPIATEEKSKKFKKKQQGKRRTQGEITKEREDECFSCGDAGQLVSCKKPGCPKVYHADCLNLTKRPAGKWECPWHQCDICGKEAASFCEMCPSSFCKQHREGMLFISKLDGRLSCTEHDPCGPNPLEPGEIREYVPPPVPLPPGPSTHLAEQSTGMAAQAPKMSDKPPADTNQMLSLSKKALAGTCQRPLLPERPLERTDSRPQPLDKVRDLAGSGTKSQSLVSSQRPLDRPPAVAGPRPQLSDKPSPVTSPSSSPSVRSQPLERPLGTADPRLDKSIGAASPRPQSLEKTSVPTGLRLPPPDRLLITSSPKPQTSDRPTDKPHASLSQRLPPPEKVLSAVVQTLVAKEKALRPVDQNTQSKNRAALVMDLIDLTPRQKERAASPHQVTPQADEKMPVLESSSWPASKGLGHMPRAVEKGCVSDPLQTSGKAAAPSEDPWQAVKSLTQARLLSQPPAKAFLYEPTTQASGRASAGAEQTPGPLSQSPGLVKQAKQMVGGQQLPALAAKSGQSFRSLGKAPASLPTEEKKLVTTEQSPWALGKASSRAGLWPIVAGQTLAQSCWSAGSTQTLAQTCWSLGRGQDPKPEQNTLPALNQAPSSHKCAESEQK

For orientation: EC50 means the concentration needed to bring the measured effect to its halfway point. On to `Cc1cc(CNCCCCCCCCCCC(=O)N[C@H](C(=O)N2C[C@H](O)C[C@H]2C(=O)N[C@@H](C)c2ccc(-c3scnc3C)cc2)C(C)(C)C)cc(C)c1-c1ncn(C)c1-c1ccnc2cc(F)ccc12`, for which the outcome in the experiment on NCI-H1703 [1] and with NCI-H1703 [16] was Active. Further, the figures for the Activity (with NCI-H1703 [2]; with NCI-H1703 [12]; in experiment [19]) were 7.21%, 6.08% and “Dose-Dependent Effect”, respectively. In addition, the result in [3], in experiment [8] and in experiment [13] was inactive. The “fold change (FC)” value amounted to 0.6 in experiment [4]; 0.7 in experiment [6]; 0.78 in [7]; 0.63 in the experiment on NCI-H1703 [9]; 1.03 in experiment [10]; 0.62 in [11]. For the same molecule, the “fold change (FC)” value with NCI-H520 [14] is reported as 0.5; in experiment [15], 0.69; with NCI-H520 [17], 0.89; in the experiment with NCI-H1703 [18], 0.8; in [21] it was 0.81. For the same molecule, the viability at […] in the experiment with NCI-H1703 [5] was found to be 66.7%. Moreover, it took 1430 nM to reach a half-maximal effect in experiment [20] (EC50).
